The values below come from patent publication US8999990B2, “Inhibitors of the renal outer medullary potassium channel” (Merck Sharp & Dohme Corp., priority 2011, dated 2015).

The target of the assay is T1, hROMK (hKir1.1) (Homo sapiens, UniProt P48048).
T1 construct: expressed in transfected cells
T1 sequence (P48048 1-391): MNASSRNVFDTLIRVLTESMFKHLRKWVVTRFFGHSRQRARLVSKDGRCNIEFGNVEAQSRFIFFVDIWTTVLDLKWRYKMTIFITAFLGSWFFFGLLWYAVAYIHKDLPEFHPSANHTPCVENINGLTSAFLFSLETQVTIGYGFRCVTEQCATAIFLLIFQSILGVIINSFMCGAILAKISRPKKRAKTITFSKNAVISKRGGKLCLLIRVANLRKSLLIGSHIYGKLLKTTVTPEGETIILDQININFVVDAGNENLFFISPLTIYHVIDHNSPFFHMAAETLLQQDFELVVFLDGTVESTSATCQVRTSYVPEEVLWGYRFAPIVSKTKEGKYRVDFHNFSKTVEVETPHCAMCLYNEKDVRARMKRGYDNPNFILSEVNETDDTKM
Nature of the assay: Thallium Flux Assay. The settings on record: HEK293 cells stably expressing hROMK; FLIPR-Tetra, 384 wells; read-out: Thallium Flux IC50. In kind it is cell-based. Here is the method: Several assays may be used to measure functional inhibition of the ROMK channel by compounds of the instant invention. One assay that was used to test the activity of compounds in the Examples is the functional ^86Rb^+ efflux assay described below, that measures the ability of ROMK to permeate ^86Rb^+, in the absence or presence of test compound. Under control conditions, cells loaded with ^86Rb^+ and incubated in Rb^+-free medium display a time-dependent efflux of the isotope, the rate of which depends on number of functional channels. When cells are incubated in the presence of a channel inhibitor, efflux of ^86Rb^+ is prevented in a concentration-dependent manner, and IC50 values of inhibition by compounds can be accurately determined. This assay has been established with cell lines expressing either human, rat or dog ROMK channels, and can operate in 96- or 384-well format. Importantly, the human, rat, and dog ^86Rb^+ efflux assays can be carried out in the presence of up to 100% serum allowing, therefore, an accurate estimation of the effect of protein binding on the inhibitory activity of compounds of interest. Another ROMK functional assay used to test the activity of compounds in the Examples (described below) makes use of the ability of thallium to permeate through open ROMK channels and increase the fluorescence of a dye previously loaded into the cells. Under control conditions, cells loaded with dye and exposed to thallium-containing medium display a time-dependent increase in fluorescence, the rate of which depends on number of functional channels. When cells are incubated in the presence of a channel inhibitor, the increase in fluorescence is attenuated in a concentration-dependent manner, and IC50 values of inhibition by compounds can be accurately determined. This assay has been established with cell lines expressing either human, or rat ROMK channels, and operates in 384-well format.
HEK293 cells stably expressing hROMK (hKir1.1) were grown at 37° C. in a 10% CO2 humidified incubator in complete growth media: Dulbecco's Modified Eagle Medium supplemented with non-essential amino acids, Penicillin/Streptomycin/Glutamine, G418 and FBS. At >80% confluency, aspirate the media from the flask and rinse with 10 mL Calcium/Magnesium-free PBS. Add 5 mL of 1× trypsin (prepared in Ca/Mg Free PBS) to T-225 flask and return flask to 37° C./CO2 incubator for 2-3 minutes. To dislodge the cell, gently bang the side of the flask with your hand. Triturate the cells completely and then transfer the cells to 25 mL complete media. Centrifuge at 1,500 rpm for 6 min followed by resuspension in complete growth media and determine cell concentration. For typical re-seeding, 4E6 cells/T-225 flask will attain >80% confluency in 4 days. Under ideal growth conditions and appropriate tissue culture practices, this cell line is stable for 40-45 passages.
• FluxOR™ Reagent (Component A) • FluxOR™ Assay Buffer (Component B)—10× Concentrate • PowerLoad™ Concentrate (Component C)—100× Concentrate • Probenecid (Component D)—Lyophilized sample is kept at −20° C. Water soluble, 100× after solubilization in 1 mL water. […] Store at 4° C. • Thallium sulfate (Tl2SO4) Concentrate (Component G)—50 mM in water. […]

Structures are written as SMILES.

As a reminder, the IC50 is the concentration needed to halve the response being measured. For the molecule `Cc1c(C(=O)CN2CCN(C[C@H](O)c3ccc4c(c3C)COC4=O)CC2=O)ccc(F)c1C#N` [Example 51, 6-Fluoro-3-({4-[(2R)-2-hydroxy-2-(4-methyl-1-oxo-1,3-dihydro-2-benzofuran-5-yl)ethyl]-2-oxopiperazin-1-yl}acetyl)-2-methylbenzonitrile], the IC50 is 125 nM.

For `Cc1c(CCN2CCN(C[C@H](O)c3ccc4c(c3C)COC4=O)CC2=O)ccc2c1COC2=O` [Example 52, 4-[(2R)-2-hydroxy-2-(4-methyl-1-oxo-1,3-dihydro-2-benzofuran-5-yl)ethyl]-1-[2-(4-methyl-1-oxo-1,3-dihydro-2-benzofuran-5-yl)ethyl]piperazin-2-one], the IC50 was 235 nM.

Regarding `Cc1c(CCN2CCN(C[C@@H](O)c3ccc4c(c3C)COC4=O)CC2=O)ccc2c1COC2=O` [Example 53, 4-[(2S)-2-hydroxy-2-(4-methyl-1-oxo-1,3-dihydro-2-benzofuran-5-yl)ethyl]-1-[2-(4-methyl-1-oxo-1,3-dihydro-2-benzofuran-5-yl)ethyl]piperazin-2-one], the IC50 was 660 nM.

Turning to `Cc1c(CCN2CCN(CCc3ccc(C#N)cn3)C(=O)C2)ccc2c1COC2=O` [Example 54, 6-(2-{4-[2-(4-Methyl-1-oxo-1,3-dihydro-2-benzofuran-5-yl)ethyl]-2-oxopiperazin-1-yl}ethyl)pyridine-3-carbonitrile], the IC50 was 780 nM.
